Data: ChEMBL document CHEMBL1157156, “A novel sesquiterpene lactone from Centaurea pullata: structure elucidation, antimicrobial activity, and prediction of pharmacokinetic properties” (2008)
≈ marks a conversion by molar mass, not a printed value.

What was measured:
[1] = tested on: Talaromyces funiculosus; assay: Antimicrobial activity against Penicillium funiculosum ATCC 36839 by serial dilution technique; format: functional
[2] = tested on: Alternaria alternata; assay: Antimicrobial activity against Alternaria alternata DMS2006 by serial dilution technique; format: functional
[3] = tested on: Aspergillus niger; assay: Antimicrobial activity against Aspergillus niger ATCC 6275 by serial dilution technique; format: functional
[4] = tested on: Penicillium ochrochloron; assay: Antimicrobial activity against Penicillium ochrochloron ATCC 9112 by serial dilution technique; format: functional
[5] = tested on: Aspergillus ochraceus; assay: Antimicrobial activity against Aspergillus ochraceus ATCC 12066 by serial dilution technique; format: functional
[6] = tested on: Trichoderma viride; assay: Antimicrobial activity against Trichoderma viride IAM5061 by serial dilution technique; format: functional
[7] = tested on: Fusarium tricinctum; assay: Antimicrobial activity against Fusarium tricinctum by serial dilution technique; format: functional
[8] = tested on: Aspergillus flavus; assay: Antimicrobial activity against Aspergillus flavus ATCC 9643 by serial dilution technique; format: functional
[9] = tested on: Escherichia coli; assay: Antimicrobial activity against Escherichia coli ATCC 35210 by serial dilution technique; format: functional
[10] = tested on: Micrococcus luteus; assay: Antimicrobial activity against Micrococcus flavus ATCC 10240 by serial dilution technique; format: functional
[11] = tested on: Staphylococcus epidermidis; assay: Antimicrobial activity against Staphylococcus epidermidis ATCC 12228 by serial dilution technique; format: functional
[12] = tested on: Bacillus subtilis; assay: Antimicrobial activity against Bacillus subtilis ATCC 10907 by serial dilution technique; format: functional
[13] = tested on: Salmonella enteritidis; assay: Antimicrobial activity against Salmonella enteritidis ATCC 13076 by serial dilution technique; format: functional, Salmonella enterica subsp. enterica serovar Enteritidis; details: Salmonella enterica
[14] = tested on: Pseudomonas tolaasii; assay: Antimicrobial activity against Pseudomonas tolaasii by serial dilution technique; format: functional

| Compound | MFC [1] | MIC [1] | MFC [2] | MIC [2] | MFC [3] | MIC [3] | MFC [4] | MIC [4] | MFC [5] | MIC [5] | MFC [6] | MIC [6] | MFC [7] | MIC [7] | MFC [8] | MIC [8] | MIC [9] | MBC [10] | MIC [10] | MBC [11] | other results |
| --- | --- | --- | --- | --- | --- | --- | --- | --- | --- | --- | --- | --- | --- | --- | --- | --- | --- | --- | --- | --- | --- |
| Clc1ccc(COC(Cn2ccnc2)c2ccc(Cl)cc2Cl)c(Cl)c1 (configuration not stated) [MICONAZOLE] | 10 µM (≈ 4.16 µg/mL) | 4 µM (≈ 1.66 µg/mL) | 2 µM (≈ 0.832 µg/mL) | 0.4 µM (≈ 0.166 µg/mL) | 8 µM (≈ 3.33 µg/mL) | 3 µM (≈ 1.25 µg/mL) | 10 µM (≈ 4.16 µg/mL) | 4 µM (≈ 1.66 µg/mL) | 8 µM (≈ 3.33 µg/mL) | 3 µM (≈ 1.25 µg/mL) | 4 µM (≈ 1.66 µg/mL) | 4 µM (≈ 1.66 µg/mL) | 2 µM (≈ 0.832 µg/mL) | 0.4 µM (≈ 0.166 µg/mL) | 4 µM (≈ 1.66 µg/mL) | 1 µM (≈ 0.416 µg/mL) |  |  |  |  |  |
| CN[C@@H]1[C@H](O[C@H]2[C@H](O[C@H]3[C@H](O)[C@@H](O)[C@H](N=C(N)N)[C@@H](O)[C@@H]3N=C(N)N)O[C@@H](C)[C@]2(O)C=O)O[C@@H](CO)[C@H](O)[C@H]1O [STREPTOMYCIN] |  |  |  |  |  |  |  |  |  |  |  |  |  |  |  |  | 0.8 µM (≈ 0.465 µg/mL) | 1.6 µM (≈ 0.931 µg/mL) | 0.8 µM (≈ 0.465 µg/mL) | 1.6 µM (≈ 0.931 µg/mL) | MIC [11]: 1.6 µM (≈ 0.931 µg/mL); MBC [12]: 0.8 µM (≈ 0.465 µg/mL); MIC [12]: 0.8 µM (≈ 0.465 µg/mL); MBC [13]: 1.6 µM (≈ 0.931 µg/mL); MIC [13]: 1.6 µM (≈ 0.931 µg/mL); MBC [14]: 1.6 µM (≈ 0.931 µg/mL); MIC [14]: 1.6 µM (≈ 0.931 µg/mL) |
| C=C[C@]1(C)C[C@H](O)[C@@H]2[C@H](OC(=O)[C@H]2C)[C@H]1C(=C)CO | 0.7 µM (≈ 0.186 µg/mL) | 0.7 µM (≈ 0.186 µg/mL) | 0.7 µM (≈ 0.186 µg/mL) | 0.7 µM (≈ 0.186 µg/mL) | 0.7 µM (≈ 0.186 µg/mL) | 0.7 µM (≈ 0.186 µg/mL) | 0.7 µM (≈ 0.186 µg/mL) | 0.7 µM (≈ 0.186 µg/mL) | 0.7 µM (≈ 0.186 µg/mL) | 0.7 µM (≈ 0.186 µg/mL) | 0.7 µM (≈ 0.186 µg/mL) | 0.3 µM (≈ 0.0799 µg/mL) | 0.7 µM (≈ 0.186 µg/mL) | 0.7 µM (≈ 0.186 µg/mL) | 0.7 µM (≈ 0.186 µg/mL) | 0.7 µM (≈ 0.186 µg/mL) | 2.3 µM (≈ 0.613 µg/mL) | 2.3 µM (≈ 0.613 µg/mL) | 2.3 µM (≈ 0.613 µg/mL) | 2.3 µM (≈ 0.613 µg/mL) | MIC [11]: 2.3 µM (≈ 0.613 µg/mL); MBC [12]: 2.3 µM (≈ 0.613 µg/mL); MIC [12]: 1.5 µM (≈ 0.4 µg/mL); MBC [13]: 2.3 µM (≈ 0.613 µg/mL); MIC [13]: 2.3 µM (≈ 0.613 µg/mL); MBC [14]: 2.3 µM (≈ 0.613 µg/mL); MIC [14]: 2.3 µM (≈ 0.613 µg/mL) |
| C=C[C@]1(C)C[C@H](OC(=O)C(=C)CCO)[C@@H]2[C@H](OC(=O)[C@H]2C)[C@H]1C(=C)CO | 0.3 µM (≈ 0.109 µg/mL) | 0.2 µM (≈ 0.0729 µg/mL) | 0.1 µM (≈ 0.0364 µg/mL) | 0.1 µM (≈ 0.0364 µg/mL) | 0.3 µM (≈ 0.109 µg/mL) | 0.3 µM (≈ 0.109 µg/mL) | 0.2 µM (≈ 0.0729 µg/mL) | 0.2 µM (≈ 0.0729 µg/mL) | 0.2 µM (≈ 0.0729 µg/mL) | 0.2 µM (≈ 0.0729 µg/mL) | 0.2 µM (≈ 0.0729 µg/mL) | 0.2 µM (≈ 0.0729 µg/mL) | 0.2 µM (≈ 0.0729 µg/mL) | 0.1 µM (≈ 0.0364 µg/mL) | 0.2 µM (≈ 0.0729 µg/mL) | 0.1 µM (≈ 0.0364 µg/mL) | 0.4 µM (≈ 0.146 µg/mL) | 0.5 µM (≈ 0.182 µg/mL) | 0.4 µM (≈ 0.146 µg/mL) | 0.8 µM (≈ 0.292 µg/mL) | MIC [11]: 0.5 µM (≈ 0.182 µg/mL); MBC [12]: 0.4 µM (≈ 0.146 µg/mL); MIC [12]: 0.2 µM (≈ 0.0729 µg/mL); MBC [13]: 0.4 µM (≈ 0.146 µg/mL); MIC [13]: 0.2 µM (≈ 0.0729 µg/mL); MBC [14]: 0.8 µM (≈ 0.292 µg/mL); MIC [14]: 0.5 µM (≈ 0.182 µg/mL) |
| C[C@@H]1C(=O)O[C@H]2[C@H]1[C@@H](O)C[C@]1(C)[C@@H]2[C@@H](C=O)CC[C@H]1O | 0.7 µM (≈ 0.198 µg/mL) | 0.7 µM (≈ 0.198 µg/mL) | 0.3 µM (≈ 0.0847 µg/mL) | 0.3 µM (≈ 0.0847 µg/mL) | 0.3 µM (≈ 0.0847 µg/mL) | 0.3 µM (≈ 0.0847 µg/mL) | 0.7 µM (≈ 0.198 µg/mL) | 0.3 µM (≈ 0.0847 µg/mL) | 0.3 µM (≈ 0.0847 µg/mL) | 0.3 µM (≈ 0.0847 µg/mL) | 0.7 µM (≈ 0.198 µg/mL) | 0.7 µM (≈ 0.198 µg/mL) | 0.3 µM (≈ 0.0847 µg/mL) | 0.3 µM (≈ 0.0847 µg/mL) | 0.3 µM (≈ 0.0847 µg/mL) | 0.3 µM (≈ 0.0847 µg/mL) | 1 µM (≈ 0.282 µg/mL) | 0.7 µM (≈ 0.198 µg/mL) | 0.7 µM (≈ 0.198 µg/mL) | 1.4 µM (≈ 0.395 µg/mL) | MIC [11]: 1 µM (≈ 0.282 µg/mL); MBC [12]: 0.7 µM (≈ 0.198 µg/mL); MIC [12]: 0.7 µM (≈ 0.198 µg/mL); MBC [13]: 1 µM (≈ 0.282 µg/mL); MIC [13]: 0.7 µM (≈ 0.198 µg/mL); MBC [14]: 0.7 µM (≈ 0.198 µg/mL); MIC [14]: 0.7 µM (≈ 0.198 µg/mL) |
| C[C@@H]1C(=O)O[C@@H]2C3[C@H](C=O)CCC[C@]3(C)C[C@H](O)[C@@H]12 (some centres not stated) | 0.6 µM (≈ 0.16 µg/mL) | 0.4 µM (≈ 0.107 µg/mL) | 0.2 µM (≈ 0.0533 µg/mL) | 0.2 µM (≈ 0.0533 µg/mL) | 0.6 µM (≈ 0.16 µg/mL) | 0.6 µM (≈ 0.16 µg/mL) | 0.4 µM (≈ 0.107 µg/mL) | 0.4 µM (≈ 0.107 µg/mL) | 0.4 µM (≈ 0.107 µg/mL) | 0.4 µM (≈ 0.107 µg/mL) | 0.4 µM (≈ 0.107 µg/mL) | 0.4 µM (≈ 0.107 µg/mL) | 0.4 µM (≈ 0.107 µg/mL) | 0.2 µM (≈ 0.0533 µg/mL) | 0.4 µM (≈ 0.107 µg/mL) | 0.2 µM (≈ 0.0533 µg/mL) | 0.5 µM (≈ 0.133 µg/mL) | 0.7 µM (≈ 0.186 µg/mL) | 0.5 µM (≈ 0.133 µg/mL) | 1.1 µM (≈ 0.293 µg/mL) | MIC [11]: 0.7 µM (≈ 0.186 µg/mL); MBC [12]: 0.5 µM (≈ 0.133 µg/mL); MIC [12]: 0.3 µM (≈ 0.0799 µg/mL); MBC [13]: 0.5 µM (≈ 0.133 µg/mL); MIC [13]: 0.3 µM (≈ 0.0799 µg/mL); MBC [14]: 1.1 µM (≈ 0.293 µg/mL); MIC [14]: 0.7 µM (≈ 0.186 µg/mL) |
| C/C1=C\CC/C(CO)=C/[C@H]2OC(=O)[C@@H](C)[C@@H]2[C@@H](O)C1 | 0.7 µM (≈ 0.186 µg/mL) | 0.7 µM (≈ 0.186 µg/mL) | 0.7 µM (≈ 0.186 µg/mL) | 0.7 µM (≈ 0.186 µg/mL) | 0.7 µM (≈ 0.186 µg/mL) | 0.7 µM (≈ 0.186 µg/mL) | 0.7 µM (≈ 0.186 µg/mL) | 0.7 µM (≈ 0.186 µg/mL) | 0.7 µM (≈ 0.186 µg/mL) | 0.7 µM (≈ 0.186 µg/mL) | 0.7 µM (≈ 0.186 µg/mL) | 0.3 µM (≈ 0.0799 µg/mL) | 0.7 µM (≈ 0.186 µg/mL) | 0.7 µM (≈ 0.186 µg/mL) | 0.7 µM (≈ 0.186 µg/mL) | 0.3 µM (≈ 0.0799 µg/mL) | 1.5 µM (≈ 0.4 µg/mL) | 1.1 µM (≈ 0.293 µg/mL) | 1.1 µM (≈ 0.293 µg/mL) | 1.9 µM (≈ 0.506 µg/mL) | MIC [11]: 1.5 µM (≈ 0.4 µg/mL); MBC [12]: 1.1 µM (≈ 0.293 µg/mL); MIC [12]: 0.8 µM (≈ 0.213 µg/mL); MBC [13]: 1.5 µM (≈ 0.4 µg/mL); MIC [13]: 1.1 µM (≈ 0.293 µg/mL); MBC [14]: 0.8 µM (≈ 0.213 µg/mL); MIC [14]: 0.8 µM (≈ 0.213 µg/mL) |
